The source of these data is US12391697B2, “Condensed bi-heterocycles as inhibiting agents for Bruton's tyrosine kinase” (BIOGEN MA INC., priority 2019, dated 2025).

Each structure is given as a SMILES string. pIC50: −log10 of the molar value. A value given as a limit tells only on which side of the number the result lay.

Chain of BTK (Q06187 whole entry): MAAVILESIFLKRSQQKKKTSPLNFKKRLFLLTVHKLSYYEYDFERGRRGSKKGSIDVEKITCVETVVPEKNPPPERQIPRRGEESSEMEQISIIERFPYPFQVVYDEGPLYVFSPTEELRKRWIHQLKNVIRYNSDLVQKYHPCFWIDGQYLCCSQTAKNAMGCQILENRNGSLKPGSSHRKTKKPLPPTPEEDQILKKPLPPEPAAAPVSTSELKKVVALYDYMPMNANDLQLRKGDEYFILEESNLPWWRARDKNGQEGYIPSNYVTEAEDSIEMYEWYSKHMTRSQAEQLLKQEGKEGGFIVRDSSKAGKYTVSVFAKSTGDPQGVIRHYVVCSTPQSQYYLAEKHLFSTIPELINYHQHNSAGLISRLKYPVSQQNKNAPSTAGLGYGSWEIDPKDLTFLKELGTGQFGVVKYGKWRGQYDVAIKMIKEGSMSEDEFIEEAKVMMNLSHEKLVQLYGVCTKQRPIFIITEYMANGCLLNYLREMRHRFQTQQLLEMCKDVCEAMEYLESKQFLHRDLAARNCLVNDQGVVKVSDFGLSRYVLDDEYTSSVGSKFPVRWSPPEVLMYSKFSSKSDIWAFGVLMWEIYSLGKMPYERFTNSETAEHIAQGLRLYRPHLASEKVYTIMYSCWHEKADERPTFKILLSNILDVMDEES

This test concerns the target BTK (Homo sapiens (Human), UniProt Q06187). As to the kind of experiment: In Vitro BTK Kinase Assay: Btk-PolyGAT-LS Assay. The class given is biochemical. Conditions: active BTK enzyme 0.25 nM, ATP 10 μM, polyGAT 100 nM, 30 minutes. As for the experimental part: In Vitro BTK Kinase Assay: Btk-PolyGAT-LS Assay
The purpose of the BTK in vitro assay is to determine compound potency against BTK through the measurement of IC50. […] The BTK kinase reaction was done in a black 96 well plate (costar 3694). For a typical assay, a […] aliquot of a ATP/peptide master mix (final concentration; ATP 10 μM, polyGAT 100 nM) in kinase buffer (10 mM Tris-HCl pH 7.5, 10 mM MgCl2, 200 μM […], 5 mM DTT, 0.01% Triton X-100, and 0.2 mg/ml casein) is added to each well. Next, […] of a 4-fold, 40× compound titration in 100% DMSO solvent is added, followed by adding 15 uL of BTK enzyme mix in 1× kinase buffer (with a final concentration of 0.25 nM). The assay is incubated for 30 minutes before being stopped with […] of a 50 mM EDTA solution. Aliquots (5 uL) of the kinase reaction are transferred to a low volume white 384 well plate (Corning 3674), and […] of a 2× detection buffer (Invitrogen PV3574, with 4 nM Tb-PY20 antibody, Invitrogen PV3552) is added. The plate is covered and incubated for 45 minutes at room temperature. Time resolved fluorescence (TRF) on Molecular Devices M5 (332 nm excitation; 488 nm emission; 518 nm fluorescein emission) is measured.
On to `Cc1cc(-c2ncnn3cc(-c4cnn(C(F)F)c4)cc23)ccc1CNC(=O)c1noc(C(C)(C)C)n1` [Example 107], for which the pIC50 is not below 9.00.

Regarding `Cc1cc(-c2ncnn3cc(-c4cn(C)nc4C)cc23)ccc1CNC(=O)c1noc(C(C)(C)C)n1` [Example 108], the pIC50 was not below 9.00.

Turning to `Cc1cc(-c2ncnn3cc(-c4cnn(C)c4C)cc23)ccc1CNC(=O)c1noc(C(C)(C)C)n1` [Example 109], the pIC50 was not below 9.00.

Molecule `Cc1cc(-c2ncnn3cc(-c4cnco4)cc23)ccc1CNC(=O)c1noc(C(C)(C)C)n1` [Example 110] gave a pIC50 not below 9.00.

With `Cc1c(CNC(=O)c2noc(C(C)(C)C)n2)ccc(-c2ncnn3cc(-c4cnn(C)c4)cc23)c1F` [Example 112], the pIC50 was not below 9.00.

In turn, `Cc1cc(-c2ncnn3cc(-c4cnn(C)c4)cc23)ccc1CNC(=O)c1nnn(C(C)(C)C)n1` [Example 113] gave a pIC50 not below 9.00.

On to `Cc1cc(-c2ncnn3cc(N4CCOCC4)cc23)ccc1CNC(=O)c1nnn(C(C)(C)C)n1` [Example 114], for which the pIC50 is not below 9.00.

`Cc1c(CNC(=O)c2nc(C(C)(C)C)no2)ccc(-c2ccnc3cc(N4CCOCC4)nn23)c1F` [Example 118] had a pIC50 of 8.00 to 9.00.

Molecule `Cc1cc(-c2ncnn3cc(N4CCn5ccnc5C4)cc23)ccc1CNC(=O)c1noc(C(C)(C)C)n1` [Example 120] showed a negative-log IC50 (pIC50) not below 9.00.

As to `Cc1cc(-c2ncnn3cc(N4CCn5ccnc5C4)cc23)ccc1CNC(=O)c1nc(C(C)(C)C)no1` [Example 121], the pIC50 was not below 9.00.

`Cc1cc(-c2ncnn3cc(N4C[C@@H](F)[C@@H](F)C4)cc23)ccc1CNC(=O)c1noc(C(C)(C)C)n1` [Example 122] showed a pIC50 not below 9.00.

For `Cc1cc(-c2ncnn3cc(N4CCN5CC(F)(F)C[C@H]5C4)cc23)ccc1CNC(=O)c1nc(C(C)(C)C)no1` [Example 123], the pIC50 was not below 9.00.

As to `Cc1cc(-c2ncnn3cc(C4=CCOCC4)cc23)ccc1CNC(=O)c1coc(C(C)(C)C)n1` [Example 124], the pIC50 is not below 9.00.

Take `Cc1cc(-c2ncnn3cc(C4=CCOCC4)cc23)ccc1CNC(=O)c1nnn(C(C)(C)C)n1` [Example 128]: the pIC50 is not below 9.00.

As to `Cc1cc(-c2ncnn3cc(-c4cnn(C)c4C)cc23)ccc1CNC(=O)c1nnn(C(C)(C)C)n1` [Example 129], the negative-log IC50 (pIC50) is not below 9.00.

On to `Cc1cc(-c2ncnn3cc(-c4cnn(C)c4C)cc23)ccc1CNC(=O)c1coc(C(C)(C)C)n1` [Example 130], for which the pIC50 is not below 9.00.

As to `Cc1cc(-c2ncnn3cc(-c4cnn(C)c4C)cc23)ccc1CNC(=O)c1cnc(C(C)(C)C)o1` [Example 131], the pIC50 was 8.00 to 9.00.

`CC(C)(C)c1nc(C(=O)NCc2cc(F)c(-c3ncnn4cccc34)cc2Cl)no1` [Example 132] showed a pIC50 of 8.00 to 9.00.

For the molecule `CC(C)(C)c1noc(C(=O)NCc2cc(F)c(-c3ncnn4cccc34)cc2Cl)n1` [Example 133], the pIC50 was 8.00 to 9.00.

`CC(C)(C)c1nc(C(=O)NCc2cc(F)c(-c3ncnn4cccc34)cc2Cl)co1` [Example 134] had a negative logarithm of the IC50 (pIC50) of less than 8.00.

`CC(C)(C)c1cc(C(=O)NCc2cc(F)c(-c3ncnn4cccc34)cc2Cl)no1` [Example 135] showed a pIC50 of less than 8.00.

As to `CC(C)(C)n1nnc(C(=O)NCc2cc(F)c(-c3ncnn4cccc34)cc2Cl)n1` [Example 136], the pIC50 is less than 8.00.

Turning to `Cc1cc(-c2ncnn3cc(-c4cnn(CC(F)F)c4)cc23)ccc1CNC(=O)c1cnn(C(C)(C)C)c1` [Example 145], the pIC50 is not below 9.00.

`Cc1cc(-c2ncnn3cc(-c4cnn(CC(F)F)c4)cc23)ccc1CNC(=O)c1nnn(C(C)(C)C)n1` [Example 146]: the pIC50 is not below 9.00.

Regarding `CC=CC(=O)n1cc(-c2cc3c(-c4ccc(CNC(=O)c5noc(C(C)(C)C)n5)c(C)c4)ncnn3c2)cn1` [Example 147], the pIC50 is not below 9.00.

On to `Cc1cc(-c2ncnn3cc(N4CC5CC(C4)N5C)cc23)ccc1CNC(=O)c1noc(C(C)(C)C)n1` [Example 148], for which the pIC50 is 8.00 to 9.00.

In the case of `Cc1cc(-c2ncnn3cc(C4CCN(C)C4)cc23)ccc1CNC(=O)c1noc(C(C)(C)C)n1` (stereo not drawn) [Example 149], the pIC50 was 8.00 to 9.00.

The molecule `Cc1cc(-c2ncnn3cccc23)ccc1CNC(=O)c1noc(C(C)(C)C)n1` [Example 151] gave a pIC50 of 8.00 to 9.00.

Molecule `Cc1cc(-c2ncnn3cccc23)ccc1CNC(=O)c1nc(C(C)(C)C)no1` [Example 152] showed a negative-log IC50 (pIC50) of 8.00 to 9.00.

`CC(C)(C)c1noc(C(=O)NCc2ccc(-c3ncnn4cccc34)c(F)c2C2CC2)n1` [Example 153]: the negative logarithm of the IC50 (pIC50) is 8.00 to 9.00.

Regarding `CC(C)(C)c1nc(C(=O)NCc2ccc(-c3ncnn4cc(N5CCOCC5)cc34)c(F)c2Cl)no1` [Example 154], the pIC50 is not below 9.00.

As to `CC(C)(C)n1cc(C(=O)NCc2ccc(-c3ncnn4cc(N5CCOCC5)cc34)c(F)c2Cl)cn1` [Example 155], the pIC50 is not below 9.00.

Molecule `CC(C)(C)c1nnc(C(=O)NCc2ccc(-c3ncnn4cc(N5CCOCC5)cc34)c(F)c2Cl)o1` [Example 156] gave a pIC50 not below 9.00.

`CC(C)(C)n1cc(C(=O)NCc2ccc(-c3ncnn4cc(N5CCOCC5)cc34)c(F)c2Cl)nn1` [Example 157] showed a pIC50 not below 9.00.

`CC(C)(C)n1ccc(C(=O)NCc2ccc(-c3ncnn4cc(N5CCOCC5)cc34)c(F)c2Cl)n1` [Example 158] gave a negative logarithm of the IC50 (pIC50) of 8.00 to 9.00.

`CC(C)(C)c1noc(C(=O)NCc2ccc(-c3ncnn4cc(N5CCOCC5)cc34)cc2Cl)n1` [Example 159] had a pIC50 not below 9.00.

Molecule `CC(C)(C)n1cc(C(=O)NCc2ccc(-c3ncnn4cc(N5CCOCC5)cc34)cc2Cl)cn1` [Example 160] had a negative-log IC50 (pIC50) not below 9.00.

Take `CC(C)(C)c1nnc(C(=O)NCc2ccc(-c3ncnn4cc(N5CCOCC5)cc34)cc2Cl)o1` [Example 161]: the pIC50 was 8.00 to 9.00.

Molecule `CC(C)(C)n1cc(C(=O)NCc2ccc(-c3ncnn4cc(N5CCOCC5)cc34)cc2Cl)nn1` [Example 162] had a pIC50 of 8.00 to 9.00.

The molecule `CC(C)(C)c1nnc(C(=O)NCc2ccc(-c3ncnn4cc(N5CCOCC5)cc34)c(F)c2C2CC2)o1` [Example 163] showed a pIC50 of 8.00 to 9.00.

`CC(C)(C)n1cc(C(=O)NCc2ccc(-c3ncnn4cc(N5CCOCC5)cc34)c(F)c2C2CC2)nn1` [Example 164]: the pIC50 was 8.00 to 9.00.

`Cc1cc(-c2ncnn3cc(-c4cnn(C)c4)cc23)ccc1CNC(=O)c1nnc(C(C)(C)C)o1` [Example 165] had a pIC50 not below 9.00.

`Cc1cc(-c2ncnn3cc(-c4cnn(C)c4)cc23)ccc1CNC(=O)c1cn(C(C)(C)C)nn1` [Example 166] gave a pIC50 not below 9.00.

Consider `Cc1cc(-c2ncnn3cc(-c4cnn(C)c4)cc23)ccc1CNC(=O)c1cnn(C(C)(C)C)c1` [Example 167], for which the pIC50 was not below 9.00.

Molecule `Cc1cc(-c2ncnn3cc(-c4cnn(C)c4)cc23)ccc1CNC(=O)c1ccn(C(C)(C)C)n1` [Example 168] gave a pIC50 not below 9.00.

As for `Cc1cc(-c2ncnn3cc(-c4cccnc4)cc23)ccc1CNC(=O)c1noc(C(C)(C)C)n1` [Example 169], the pIC50 was not below 9.00.

`Cc1cc(-c2cc3c(-c4ccc(CNC(=O)c5noc(C(C)(C)C)n5)c(C)c4)ncnn3c2)cnn1` [Example 170] showed a pIC50 not below 9.00.

In turn, `Cc1cc(-c2cc3c(-c4ccc(CNC(=O)c5nc(C(C)(C)C)no5)c(C)c4)ncnn3c2)cnn1` [Example 171] had a pIC50 not below 9.00.

As usually defined, the pIC50 is the negative decadic logarithm of the IC50, by convention in mol/L.
